Source: patent publication US20120190752A1, “EXO-S-MECAMYLAMINE METHOD, USE, AND COMPOUND FOR TREATMENT” (Targacept Inc., priority 2009, published 2012)

System: subjects with major depressive disorder (MDD) who were inadequate responders to citalopram
Assay: HAMD Anxiety/Somatization Factor, Phase 2b add-on trial
Type: in vivo, human
Description: In more detail, a multi-center double-blind, randomized, placebo-controlled, parallel group, flexible dose titration study of TC-5214 as adjunctive therapy in subjects with major depressive disorder (MDD) who were inadequate responders to citalopram was conducted in centers in the US and India. The study consisted of a screening period, baseline/washout period, open-label phase, double-blind phase, and a follow-up visit. Subject participation in the study could continue for up to 16 weeks of treatment. Following a washout period of up to 28 days for other antidepressants, subjects with MDD and a MADRS total score >/=28 and a Clinical Global Impression-Severity (CGI-S) score >/=4 were enrolled on Day 1 into an open-label citalopram-only phase of the study. This phase lasted 8 weeks, with citalopram (CIT) dose increased from a once-daily dose of 20 mg (Day 1 through Week 4) to 40 mg (Week 4 through Week 8). A total of 579 subjects entered the open-label citalopram phase. At Week 8, subjects who tolerated 40 mg CIT, but whose MADRS score was reduced <50% from baseline and no lower than 17, and CGI-S≧4, were considered inadequate responders. These subjects (n=270) were randomized in a double-blind fashion to receive either placebo or TC-5214-23 as add-on therapy to continued CIT. The double-blind phase of the study also lasted 8 weeks (Week 8 to Week 16). Study drug, TC-5214-23 or placebo, was started at 2 mg daily (1 mg twice per day [BID] dosing), added on to continuing CIT (40 mg PO qd). After 2 weeks of treatment, the dose of TC-5214 could be increased to 4 mg (2 mg BID) or continued unchanged, with up-titration based upon good tolerability and inadequate therapeutic response. After a further 2 weeks, the dose of TC-5214 could be increased again to 8 mg (4 mg BID) if judged appropriate by the investigator, based upon good tolerability and inadequate therapeutic response. At any time during the double-blind phase of the study, placebo or TC-5214-23 could be reduced to the previous dose level following the emergence of unacceptable adverse events (AEs). […] At this follow-up, any signs or symptoms of relapse were evaluated. If a subject was prematurely discontinued from the study between Week 8 and Week 16 for any reason, the investigator was to make every effort to perform all evaluations as per protocol, assuming the subject had reached the end of the double-blind add-on treatment phase. These evaluations were to be made as soon as possible and within 2 weeks of discontinuation. […] There was no meaningful difference in results as a function of age, gender, site, or smoking status. With regard to efficacy endpoints, the following tables present efficacy used in the ITT (Intent-to-Treat) and PP (Per Protocol) populations unless otherwise specific. The primary inference was based upon Week 16 visit using the ITT population. Change from baseline was obtained by subtracting the baseline values from the individual on-treatment values. Change from Week 16 was obtained by subtracting the Week 16 values from the individual follow-up visit (Week 18/19) values. If either the baseline or Week 16 or on-treatment or follow-up value was missing, the change from baseline or Week 16 value was also set to missing. To account for missing data, the last observation carry forward (LOCF) method was used for the ITT and PP populations. Thus, the last available on-therapy observation for a subject, including the observation at premature discontinuation, was used to estimate subsequent missing data points. For efficacy, baseline data were collected at Week 8 in the double-blind augmentation phase electronic case report form pages. Analysis for the secondary endpoints were performed on both the ITT and PP populations. The secondary endpoints were as follows in Table 5. [table]

[1] = ITT, Double Blind Week 16 LOCF (change from Week 8)
[2] = ITT, Double Blind Week 18 LOCF (Follow-up), change from Week 16
[3] = PP, Double Blind Week 16 LOCF (change from Week 8)
[4] = PP, Double Blind Week 18 LOCF (Follow-up), change from Week 16

CNC1(C)C2CCC(C2)C1(C)C (stereo in doubt) [TC-5214, (S)—N,2,3,3-tetramethylnorbornan-2-amine]
HAMD anxiety/somatization subscale score change from baseline compared with placebo (ITT and PP populations, result in words): statistically significant decreases (improvements) | HAMD anxiety/somatization Mean Difference between TC-5214 and Placebo [1]: 1.93 | HAMD anxiety/somatization subscale Adjusted Mean change [1]: −4.58 | HAMD anxiety/somatization Mean Difference between TC-5214 and Placebo [2]: −0.00 | HAMD anxiety/somatization subscale Adjusted Mean change [2]: −0.14 | HAMD anxiety/somatization Mean Difference between TC-5214 and Placebo [3]: 1.92 | HAMD anxiety/somatization subscale Adjusted Mean change [3]: −4.93 | HAMD anxiety/somatization Mean Difference between TC-5214 and Placebo [4]: 0.01 | HAMD anxiety/somatization subscale Adjusted Mean change [4]: −0.16
